Measured values taken from patent US11780841B2, “3,6-methano-1H-pyrrolo[3,2-b]pyridine and 3,6-methano-1H-pyrrolo[3,2-c]pyridine compounds and medicaments using same” (priority 2018, dated 2023).

system: recombinant rabies virus 1088 strain expressing Gaussia Luciferase (GLuc) (1088/GLuc); format: cell-based; settings: read-out: Anti-rabies activity

Row | SMILES | IC50 [µM]
1 | CC(C)CCN1CC2CC3(C(=O)NCc4ccc(F)cc4)N=CC2C1C3CC(C)C (centres unmarked) [IIF-104] | 5 to 10
2 | CC(C)CNC(=O)[C@]12NC[C@H]3C[C@H]1CN(CCC(=O)O)[C@H]2[C@@H]3CCc1ccccc1 [IB-430] | < 5
3 | CC(C)CC[C@@H]1[C@@H]2[C@@H]3CN[C@@]1(C(=O)NCc1ccccc1)C[C@@H]3CN2Cc1ccc(F)cc1 [IF-743] | 10 to 30
4 | CC(C)CC1C2C=NC3(C(=O)NCc4ccccc4)C(C2)CN(Cc2ccc(Cl)cc2)C13 (centres unmarked) [IIB-83] | < 5
5 | NC(=O)C[C@@H]1[C@@H]2[C@@H]3CN[C@@]1(C(=O)NCCc1ccccc1)C[C@@H]3CN2Cc1ccc(F)cc1 [IF-269] | 10 to 30
6 | CC(C)CCN1C[C@@H]2C[C@@H]3CN[C@]2(C(=O)NCCC(=O)O)[C@@H]1[C@@H]3Cc1cccc2ccccc12 [IB-381] | 10 to 30
7 | O=C(NCCO)[C@]12NC[C@H]3C[C@H]1CN(Cc1ccc(F)cc1)[C@H]2[C@@H]3CCc1ccccc1 [IB-669] | 10 to 30
8 | CC(C)CC1C2C=NC3(C(=O)NCc4ccccc4)C(C2)CN(Cc2ccc(OC(F)(F)F)cc2)C13 (centres unmarked) [IIB-96] | 5 to 10
9 | CC(C)NC(=O)[C@@]12C[C@@H]3CN(Cc4ccc(O)cc4)[C@@H]([C@@H]3CN1)[C@H]2Cc1cccc2ccccc12 [IF-504] | 10 to 30
10 | CC(C)C[C@@H]1[C@@H]2[C@@H]3CN[C@@]1(C(=O)NCc1ccc(O)cc1)C[C@@H]3CN2Cc1ccc(F)cc1 [IF-482] | 10 to 30
11 | CC(C)C[C@@H]1[C@H]2CN[C@@]3(C(=O)NCCO)[C@@H](C2)CN(CCc2ccccc2)[C@@H]13 [IB-641] | 10 to 30
12 | CC(C)CCN1C[C@H]2C[C@]3(C(=O)NCCc4ccccc4)NC[C@H]2[C@H]1[C@H]3Cc1ccc(O)cc1 (relative stereo) [IF-545] | 10 to 30
13 | CC(C)CCNC(=O)[C@@]12C[C@@H]3CN(CC4CCCCC4)[C@@H]([C@@H]3CN1)[C@H]2Cc1ccc(O)cc1 [IF-709] | 10 to 30
14 | O=C(NCc1cccc2ccccc12)[C@@]12C[C@@H]3CN(Cc4ccc(O)cc4)[C@@H]([C@@H]3CN1)[C@H]2Cc1cccc2ccccc12 [IF-779] | 10 to 30
15 | CC(C)CNC(=O)[C@]12NC[C@H]3C[C@H]1CN(CCc1ccccc1)[C@H]2[C@@H]3Cc1ccc(O)cc1 [IB-625] | 10 to 30
16 | CC(C)CCNC(=O)[C@@]12C[C@@H]3CN(CC4CCCCC4)[C@@H]([C@@H]3CN1)[C@H]2Cc1ccccc1 [IF-658] | < 5
17 | CC(C)C[C@@H]1[C@H]2CN[C@@]3(C(=O)NCc4ccccc4)[C@@H](C2)CN(Cc2ccc(N(C)C)cc2)[C@@H]13 [IB-873] | 5 to 10
18 | NC(=O)CN1C[C@H]2C[C@]3(C(=O)NCc4ccc(F)cc4)NC[C@H]2[C@H]1[C@H]3Cc1cccc2ccccc12 [IF-97] | 10 to 30
19 | CC(C)CCNC(=O)[C@]12NC[C@H]3C[C@H]1CN(CC(C)C)[C@H]2[C@@H]3CCCNC(=N)N [IB-192] | < 5
20 | O=C(NCc1ccccc1)[C@@]12C[C@@H]3CN(CC4CCCCC4)[C@@H]([C@@H]3CN1)[C@H]2Cc1ccc(O)cc1 [IF-645] | 10 to 30
21 | CCN1C[C@@H]2[C@H]3CN(Cc4ccc(C)cc4)[C@@H]2[C@@H](CC(C)C)[C@]1(C(=O)NCc1ccccc1)C3 [IF-855] | 5 to 10
22 | CC(C)CCN1C[C@H]2C[C@]3(C(=O)NCC(C)C)NC[C@H]2[C@H]1[C@H]3CCc1ccccc1 [IF-635] | 10 to 30
23 | O=C(NCc1cccc2ccccc12)[C@@]12C[C@@H]3CN(CCO)[C@@H]([C@@H]3CN1)[C@H]2Cc1ccccc1 [IF-758] | < 5

Row | SMILES | IC50 [µM]
24 | CC(C)C[C@@H]1[C@@H]2[C@@H]3CN[C@@]1(C(=O)NCc1ccccc1)C[C@@H]3CN2Cc1ccc(C(C)(C)C)cc1 [IF-849] | 5 to 10
25 | Cc1ccc(CN2CC3CC4C=NC3(C(=O)NCc3ccccc3)C2C4CC(C)C)cc1 (centres unmarked) [IIB-86] | 5 to 10
26 | CC(C)C[C@@H]1[C@@H]2[C@@H]3CN[C@@]1(C(=O)NCCC(N)=O)C[C@@H]3CN2CCc1ccccc1 [IF-699] | 10 to 30
27 | CCCCCCNC(=O)[C@]12NC[C@H]3C[C@H]1CN(CC(N)=O)[C@H]2[C@@H]3Cc1cccc2ccccc12 [IB-110] | < 5
28 | O=C(NCCO)[C@]12NC[C@H]3C[C@H]1CN(Cc1ccccc1)[C@H]2[C@@H]3CCc1ccccc1 [IB-681] | 10 to 30
29 | O=C(NCCO)[C@@]12C[C@@H]3CN(Cc4ccccc4)[C@@H]([C@@H]3CN1)[C@H]2Cc1cccc2ccccc12 [IF-624] | 10 to 30
30 | O=C(NCCO)[C@@]12C[C@@H]3CN(CCc4ccccc4)[C@@H]([C@@H]3CN1)[C@H]2Cc1cccc2ccccc12 [IF-612] | 10 to 30
31 | CCOc1ccc(CN2CC3CC4(C(=O)NCc5ccccc5)N=CC3C2C4CC(C)C)cc1 (centres unmarked) [IIF-97] | 10 to 30
32 | CC(C)C[C@@H]1[C@H]2CN[C@@]3(C(=O)NCCc4ccccc4)[C@@H](C2)CN(CC(C)C)[C@@H]13 [IB-495] | < 5
33 | CC(C)CN1C[C@H]2C[C@]3(C(=O)NCc4ccccc4)NC[C@H]2[C@H]1[C@H]3CC1CCCCC1 (relative stereo) [IF-38] | 10 to 30
34 | CC(C)NC(=O)[C@]12NC[C@H]3C[C@H]1CN(CCCNC(=N)N)[C@H]2[C@@H]3CCc1ccccc1 [IB-179] | 10 to 30
35 | CC(C)CCNC(=O)[C@@]12C[C@@H]3CN(CCc4ccccc4)[C@@H]([C@@H]3CN1)[C@H]2CC(C)C [IF-657] | < 5
36 | CC(C)CCN1C[C@H]2C[C@]3(C(=O)NCc4ccc(O)cc4)NC[C@H]2[C@H]1[C@H]3CCc1ccccc1 [IF-464] | 10 to 30
37 | CC(C)CC[C@@H]1[C@@H]2[C@@H]3CN[C@@]1(C(=O)NCc1cccc4ccccc14)C[C@@H]3CN2CCC(=O)O [IF-422] | 10 to 30
38 | CC(C)CNC(=O)[C@@]12C[C@@H]3CN(Cc4cccc5ccccc45)[C@@H]([C@@H]3CN1)[C@H]2CC(N)=O [IF-226] | 10 to 30
39 | NC(=O)CCNC(=O)C12NCC3CC1CN(Cc1ccc(F)cc1)C2C3Cc1cccc2ccccc12 (centres unmarked) [IB-525] | 10 to 30
40 | N=C(N)NCCC[C@@H]1[C@@H]2[C@@H]3CN[C@@]1(C(=O)NCCO)C[C@@H]3CN2Cc1cccc2ccccc12 [IF-239] | 10 to 30
41 | CC(C)CCC1C2C3C=NC1(C(=O)NCc1ccccc1)CC3CN2Cc1ccc(O)cc1 (centres unmarked) [IIF-101] | 5 to 10
42 | N=C(N)NCCC[C@@H]1[C@H]2CN[C@@]3(C(=O)NCc4ccccc4)[C@@H](C2)CN(Cc2ccc(F)cc2)[C@@H]13 [IB-260] | 10 to 30
43 | CC(C)CC[C@@H]1[C@H]2CN[C@@]3(C(=O)NCCC(N)=O)[C@@H](C2)CN(Cc2ccc(F)cc2)[C@@H]13 [IB-365] | 10 to 30
44 | NC(=O)C[C@@H]1[C@@H]2[C@@H]3CN[C@@]1(C(=O)NCc1ccc(O)cc1)C[C@@H]3CN2CC1CCCCC1 [IF-247] | 10 to 30
45 | CC(C)CNC(=O)[C@@]12C[C@@H]3CN(Cc4ccc(F)cc4)[C@@H]([C@@H]3CN1)[C@H]2CCc1ccccc1 [IF-652] | < 5
46 | CC(C)CCC1C2C=NC3(C(=O)NCc4ccccc4)C(C2)CN(Cc2ccc(O)cc2)C13 (centres unmarked) [IIB-101] | 5 to 10

Row | SMILES | IC50 [µM]
47 | NC(=O)CCNC(=O)[C@@]12C[C@@H]3CN(Cc4cccc5ccccc45)[C@@H]([C@@H]3CN1)[C@H]2Cc1ccc(O)cc1 [IF-435] | < 5
48 | CC(C)CC1C2CNC3(C(=O)NCc4cccc5ccccc45)C(C2)CN(CCO)C13 (centres unmarked) [IB-585] | 10 to 30
49 | CC(C)CN1C[C@H]2C[C@]3(C(=O)NCc4cccc5ccccc45)NC[C@H]2[C@H]1[C@H]3Cc1cccc2ccccc12 [IF-778] | < 5
50 | CC(C)CCNC(=O)[C@@]12C[C@@H]3CN(CCCNC(=N)N)[C@@H]([C@@H]3CN1)[C@H]2Cc1cccc2ccccc12 [IF-356] | 10 to 30
51 | N=C(N)NCCC[C@@H]1[C@H]2CN[C@@]3(C(=O)NCc4ccc(F)cc4)[C@@H](C2)CN(Cc2ccccc2)[C@@H]13 [IB-250] | 10 to 30
52 | COc1ccc(CN2C[C@@H]3C[C@@H]4CN[C@]3(C(=O)NCc3ccccc3)[C@@H]2[C@@H]4CC(C)C)cc1 [IB-866] | 5 to 10
53 | CC(C)CC[C@@H]1[C@@H]2[C@@H]3CN[C@@]1(C(=O)NC(C)C)C[C@@H]3CN2Cc1ccc(O)cc1 [IF-503] | < 5
54 | CC(C)C[C@@H]1[C@H]2CN[C@@]3(C(=O)NCc4cccc(O)c4)[C@@H](C2)CN(Cc2ccc(N(C)C)cc2)[C@@H]13 (relative stereo) [IB-891] | 10 to 30
55 | CCCCCCNC(=O)[C@]12NC[C@H]3C[C@H]1CN(CCc1ccccc1)[C@H]2[C@@H]3CCCNC(=N)N [IB-256] | 10 to 30
56 | CC(C)C[C@@H]1[C@@H]2[C@@H]3CN[C@@]1(C(=O)NCc1cccc4ccccc14)C[C@@H]3CN2CCO (relative stereo) [IF-542] | < 5
57 | CC(C)CC1C2CNC3(C(=O)NCCc4ccccc4)C(C2)CN(Cc2ccc(O)cc2)C13 (centres unmarked) [IB-540] | 10 to 30
58 | CC(C)CCN1C[C@H]2C[C@]3(C(=O)NCc4ccc(F)cc4)NC[C@H]2[C@H]1[C@H]3CC(C)C (relative stereo) [IF-548] | 10 to 30
59 | CC(C)CC1C2C3C=NC1(C(=O)NCc1ccccc1)CC3CN2Cc1ccc(OC(F)(F)F)cc1 (centres unmarked) [IIF-96] | 5 to 10
60 | CC(C)NC(=O)[C@@]12C[C@@H]3CN(Cc4cccc5ccccc45)[C@@H]([C@@H]3CN1)[C@H]2CCc1ccccc1 [IF-789] | 10 to 30
61 | CC(C)CNC(=O)[C@@]12C[C@@H]3CN(Cc4ccc(F)cc4)[C@@H]([C@@H]3CN1)[C@H]2CC(N)=O [IF-262] | < 5
62 | CC(C)CCC1C2CNC3(C(=O)NCCc4ccccc4)C(C2)CN(Cc2ccc(O)cc2)C13 (centres unmarked) [IB-544] | 10 to 30
63 | O=C(NCc1ccccc1)[C@]12NC[C@H]3C[C@H]1CN(CCO)[C@H]2[C@@H]3CCc1ccccc1 [IB-618] | < 5
64 | CC(C)C[C@@H]1[C@H]2CN[C@@]3(C(=O)NCCO)[C@@H](C2)CN(Cc2cccc4ccccc24)[C@@H]13 [IB-643] | 10 to 30
65 | CC(C)CNC(=O)[C@]12NC[C@H]3C[C@H]1CN(Cc1ccc(F)cc1)[C@H]2[C@@H]3Cc1ccc(O)cc1 [IB-631] | 10 to 30
66 | CC(C)CC[C@@H]1[C@H]2CN[C@@]3(C(=O)NCc4ccccc4)[C@@H](C2)CN(CC(C)C)[C@@H]13 [IB-875] | 10 to 30
67 | CCCCCCNC(=O)[C@@]12C[C@@H]3CN(Cc4ccccc4)[C@@H]([C@@H]3CN1)[C@H]2CCCNC(=N)N [IF-285] | 10 to 30
68 | O=C(NCc1ccc(F)cc1)[C@@]12C[C@@H]3CN(CCO)[C@@H]([C@@H]3CN1)[C@H]2Cc1ccccc1 (relative stereo) [IF-508] | 10 to 30
